These results are taken from the supplement of paper PMC11061612.

Assay in all cases: combination Emax (second highest fraction inhibited in the dose matrix, 72 h); higher = more inhibition; extreme values may be limits of the assay
One experiment concerns A172 (Glioblastoma). The method, boiled down:
(§1)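 Bliss excess equals the observed combination effect minus the expected value EA + EB − EA·EB, where EA and EB are the effects of each agent alone. Combination Emax is the second-highest inhibition within the matrix. Inhibition was scaled from CellTiter-Glo 2.0 luminescence, with 0 set by vehicle wells and 1 by blank wells, after 72 hours of two-drug dosing of cells plated in 1536-well plates.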

For experiment [1], the system named is CAL-39 (Other Solid Carcinomas). The method, boiled down:
as §1

In experiment [2] the test system is DOK (Oral Cavity Carcinoma). The method, boiled down: as §1
Another experiment concerns EW-22 (Ewing's Sarcoma). The method, boiled down:
as §1

Experiment [3] has as its system HCC-827 (Lung Adenocarcinoma). An outline of the steps: as §1
The test system of the next experiment is HCC38 (Breast Carcinoma). An outline of the steps: as §1
The next experiment deals with HuO9 (Osteosarcoma). An outline of the steps: as §1
Experiment [4] has as its system JHH-6 (Hepatocellular Carcinoma). The method, boiled down:
as §1

Experiment [5] has as its system KG-1 (Acute Myeloid Leukemia). An outline of the steps: as §1
A further experiment deals with MCF7 (Breast Carcinoma). The method, boiled down:
as §1

Experiment [6] relates to MES-SA (Other Solid Carcinomas). An outline of the steps:
as §1

Another experiment concerns MSTO-211H (Mesothelioma). An outline of the steps: as §1
Experiment [7] has as its system NOMO-1 (Acute Myeloid Leukemia). The method, boiled down: as §1
Experiment [8] relates to P31-FUJ (Acute Myeloid Leukemia). An outline of the steps:
as §1

A further experiment deals with SK-MEL-1 (Melanoma). An outline of the steps:
as §1

In experiment [9] the test system is SK-UT-1 (Other Solid Carcinomas). An outline of the steps: as §1
Experiment [10] concerns SNU-61 (Colorectal Carcinoma). The method, boiled down:
as §1

Experiment [11] has as its system SW48 (Colorectal Carcinoma). An outline of the steps:
as §1

Experiment [12] has as its system SW948 (Colorectal Carcinoma). The method, boiled down:
as §1

Experiment [13] has as its system TYK-nu (Ovarian Carcinoma). An outline of the steps:
as §1

With `CC1(C)CCC(CN2CCN(c3ccc(C(=O)NS(=O)(=O)c4ccc(NCC5CCOCC5)c([N+](=O)[O-])c4)c(Oc4cnc5[nH]ccc5c4)c3)CC2)=C(c2ccc(Cl)cc2)C1` [Venetoclax] + COc1cc(Nc2ncc3c(n2)-c2ccc(Cl)cc2C(c2c(F)cccc2OC)=NC3)ccc1C(=O)O [Alisertib] (first compound max 1 µM, 7x7, partner max 10 µM), the “combination Emax” value with A172 (Glioblastoma) turned out to be 0.595; in [1], 0.704; in experiment [2] it was 0.646; in the experiment on EW-22 (Ewing's Sarcoma) it was 0.919; in [3], 0.457; in the experiment with HCC38 (Breast Carcinoma), 0.179. Besides, the “combination Emax” value in the experiment with HuO9 (Osteosarcoma) was 0.682; in experiment [4] it was 0.301; in [5], 1; in the experiment on MCF7 (Breast Carcinoma) it was 0.411; in experiment [6], 0.671; in the experiment on MSTO-211H (Mesothelioma) it was 0.734. Besides, the “combination Emax” value in [7] turned out to be 0.884; in [8] it was 0.906; in the experiment on SK-MEL-1 (Melanoma), 0.351; in experiment [9], 0.458; in experiment [10] it was 0.263; in experiment [11], 0.887. The “combination Emax” value in experiment [12] is 0.926; in experiment [13], 0.521.

As to `CC1(C)CCC(CN2CCN(c3ccc(C(=O)NS(=O)(=O)c4ccc(NCC5CCOCC5)c([N+](=O)[O-])c4)c(Oc4cnc5[nH]ccc5c4)c3)CC2)=C(c2ccc(Cl)cc2)C1` [Venetoclax] + C[C@@H]1COCCN1C2=NC(=NC(=C2)C3(CC3)[S@](=N)(=O)C)C4=C5C=CNC5=NC=C4 [AZD6738] (first compound max 1 µM, 7x7, partner max 10 µM), the “combination Emax” value in the experiment with A172 (Glioblastoma) is 0.595; in [1], 0.397; in experiment [2] it was 0.414; with EW-22 (Ewing's Sarcoma), 0.929; in [3] it was 0.33; in the experiment on HCC38 (Breast Carcinoma) it was 0.531. In addition, the “combination Emax” value with HuO9 (Osteosarcoma) was determined as 0.814; in [4] it was 0.459; in [5] it was 0.917; in the experiment on MCF7 (Breast Carcinoma), 0.705; in experiment [6] it was 0.671; in the experiment with MSTO-211H (Mesothelioma) it was 0.596. In addition, the “combination Emax” value in [7] is 0.973; in experiment [8], 0.968; in the experiment on SK-MEL-1 (Melanoma), 0.391; in [9], 0.895; in [10], 0.43; in [11] it was 0.752. Further, the “combination Emax” value in experiment [12] was determined as 0.595; in experiment [13], 0.722.

As to `CC1(C)CCC(CN2CCN(c3ccc(C(=O)NS(=O)(=O)c4ccc(NCC5CCOCC5)c([N+](=O)[O-])c4)c(Oc4cnc5[nH]ccc5c4)c3)CC2)=C(c2ccc(Cl)cc2)C1` [Venetoclax] + C[C@@H](Nc1cc(F)cc(F)c1)c1cc(C(=O)N(C)C)cc2c(=O)cc(N3CCOCC3)oc12 [AZD8186] (first compound max 1 µM, 7x7, partner max 3 µM), the “combination Emax” value with A172 (Glioblastoma) came to 0.171; in [1], 0.841; in experiment [2], 0.188; with EW-22 (Ewing's Sarcoma), 0.881; in [3], 0.254; with HCC38 (Breast Carcinoma) it was 0.16. Further, the “combination Emax” value in the experiment with HuO9 (Osteosarcoma) stood at 0.468; in experiment [4], 0.193; in experiment [5], 0.508; in the experiment on MCF7 (Breast Carcinoma), 0.255; in [6] it was 0.168; in the experiment with MSTO-211H (Mesothelioma), 0.207. In addition, the “combination Emax” value in experiment [7] worked out at 0.931; in experiment [8] it was 0.866; in the experiment with SK-MEL-1 (Melanoma) it was 0.198; in [9] it was 0.206; in [10], 0.103; in experiment [11], 0.275. Besides, the results for the “combination Emax” value in experiment [12] and in experiment [13] were 0.264 and 0.495, respectively.

Take `CC1(C)CCC(CN2CCN(c3ccc(C(=O)NS(=O)(=O)c4ccc(NCC5CCOCC5)c([N+](=O)[O-])c4)c(Oc4cnc5[nH]ccc5c4)c3)CC2)=C(c2ccc(Cl)cc2)C1` [Venetoclax] + Cc1cc2ncnn2cc1Nc1ncc2c(n1)n(C1CCOCC1)c(=O)n2C [AZD7648] (first compound max 1 µM, 7x7, partner max 10 µM): the “combination Emax” value is 0.334 with A172 (Glioblastoma); 0.247 in [1]; 0.247 in experiment [2]; 0.842 in the experiment with EW-22 (Ewing's Sarcoma); 0.292 in experiment [3]; 0.165 in the experiment with HCC38 (Breast Carcinoma). The “combination Emax” value in the experiment on HuO9 (Osteosarcoma) worked out at 0.426; in experiment [4], 0.212; in experiment [5], 0.651; in the experiment on MCF7 (Breast Carcinoma) it was 0.31; in [6] it was 0.302; with MSTO-211H (Mesothelioma) it was 0.22. Moreover, the “combination Emax” value was determined as 0.922 in experiment [7]; 0.856 in experiment [8]; 0.308 in the experiment on SK-MEL-1 (Melanoma); 0.221 in experiment [9]; 0.154 in experiment [10]; 0.369 in experiment [11]. For the same molecule, the “combination Emax” value is 0.459 in experiment [12] and 0.36 in experiment [13].

For `CC1(C)CCC(CN2CCN(c3ccc(C(=O)NS(=O)(=O)c4ccc(NCC5CCOCC5)c([N+](=O)[O-])c4)c(Oc4cnc5[nH]ccc5c4)c3)CC2)=C(c2ccc(Cl)cc2)C1` [Venetoclax] + Cn1cnc2c(F)c(Nc3ccc(Br)cc3Cl)c(C(=O)NOCCO)cc21 [Selumetinib] (first compound max 1 µM, 7x7, partner max 3 µM), the “combination Emax” value with A172 (Glioblastoma) was 0.206; in experiment [1], 0.535; in experiment [2], 0.407; in the experiment with EW-22 (Ewing's Sarcoma), 0.855; in [3], 0.184; in the experiment with HCC38 (Breast Carcinoma), 0.109. The “combination Emax” value with HuO9 (Osteosarcoma) came to 0.177; in [4] it was 0.222; in experiment [5], 0.726; in the experiment with MCF7 (Breast Carcinoma), 0.104; in experiment [6] it was 0.138; in the experiment with MSTO-211H (Mesothelioma) it was 0.172. Besides, the “combination Emax” value in experiment [7] was 0.994; in experiment [8], 0.871; in the experiment with SK-MEL-1 (Melanoma) it was 0.872; in [9], 0.221; in experiment [10], 0.351; in experiment [11], 0.52. In addition, the “combination Emax” value in experiment [12] was 0.577; in experiment [13], 0.464.
